# Assay results from US20240210412A1, “SULFONYL-TRIAZOLE COMPOUNDS USEFUL AS LIGANDS AND INHIBITORS OF PROSTAGLANDIN REDUCTASE 2” (University of Virginia Patent Foundation, priority 2021, published 2024).
# What was measured:
# Experiment in all cases: SILAC LC-MS ABPP
# Format in all cases: cell-based
# Settings in all cases: 25 μM 2 h, live DM93 cells
# [1] = target: T1, O14777 (Homo sapiens, UniProt O14777)
# T1 construct: endogenous in cells; host or cells: DM93
# Outline: (§1)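 Competitive activity-based profiling in isotopically labelled DM93 melanoma cells. Heavy cells received 25 μM sulfonyl-triazole ligand and light cells vehicle, each for 2 h at 37 °C, before 2 h with 100 μM HHS-475. Labelled soluble proteins were tagged via CuAAC, combined, digested and enriched before LC-MS/MS.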
# [2] = target: T2, Q6NZY4 (Homo sapiens, UniProt Q6NZY4)
# T2 construct: endogenous in cells; host or cells: DM93 cells (SILAC), live-cell treatment
# Outline: as §1
# [3] = target: T3, Q9H788 (Homo sapiens, UniProt Q9H788)
# T3 construct: endogenous in cells; host or cells: DM93 cells (SILAC), treated live; soluble proteome analysed
# Outline: as §1
# [4] = target: T4, P23588 (Homo sapiens, UniProt P23588)
# T4 construct: Probe-modified proteins from the soluble fraction were conjugated to a desthiobiotin-azide tag; endogenous in cells; host or cells: DM93 (SILAC)
# Outline: as §1
# [5] = target: T5, P26599 (Homo sapiens, UniProt P26599)
# T5 construct: endogenous in cells; host or cells: DM93 (SILAC)
# Outline: as §1
# [6] = target: T6, P68104 (Homo sapiens, UniProt P68104)
# T6 construct: performing SuTEx compound screening directly in cells; endogenous in cells; host or cells: DM93 cells (SILAC)
# Outline: as §1
# [7] = target: T7, Q14847 (Homo sapiens, UniProt Q14847)
# T7 construct: performing SuTEx compound screening directly in cells; endogenous in cells; host or cells: DM93 cells (SILAC), soluble fraction
# Outline: as §1
# [8] = target: T8, Q92974 (Homo sapiens, UniProt Q92974)
# T8 construct: endogenous in cells; host or cells: DM93 cells (SILAC), live-cell treatment
# Outline: as §1
# [9] = target: T9, Q9BWD1 (Homo sapiens, UniProt Q9BWD1)
# T9 construct: endogenous in cells; host or cells: DM93 cells (SILAC), treated live; soluble proteome analysed
# Outline: as §1
# [10] = target: T10, Q9HCH5 (Homo sapiens, UniProt Q9HCH5)
# T10 construct: endogenous in cells; host or cells: DM93 cells (SILAC), treated live; soluble proteome analysed
# Outline: as §1
# [11] = target: T11, P30086 (Homo sapiens, UniProt P30086)
# T11 construct: endogenous in cells; host or cells: DM93 (SILAC)
# Outline: as §1
# [12] = target: T12, Q7Z6E9 (Homo sapiens, UniProt Q7Z6E9)
# T12 construct: endogenous in cells; host or cells: DM93 cells (SILAC), live-cell treatment
# Outline: as §1
# [13] = target: T13, Q96BR5 (Homo sapiens, UniProt Q96BR5)
# T13 construct: endogenous in cells; host or cells: DM93 cells (SILAC), treated live; soluble proteome analysed
# Outline: as §1
# [14] = target: T14, P50502 (Homo sapiens, UniProt P50502)
# T14 construct: endogenous in cells; host or cells: DM93 cells (SILAC)
# Outline: as §1
# [15] = target: T15, Q6ZSZ5 (Homo sapiens, UniProt Q6ZSZ5)
# T15 construct: endogenous in cells; host or cells: DM93 cells (SILAC), live-cell treatment
# Outline: as §1
# [16] = target: T16, Q92804 (Homo sapiens, UniProt Q92804)
# T16 construct: endogenous in cells; host or cells: DM93 cells (SILAC), live-cell treatment
# Outline: as §1
# [17] = target: T17, Q92878 (Homo sapiens, UniProt Q92878)
# T17 construct: endogenous in cells; host or cells: DM93 cells (SILAC), live-cell treatment
# Outline: as §1
# [18] = target: T18, Q96A72 (Homo sapiens, UniProt Q96A72)
# T18 construct: endogenous in cells; host or cells: DM93 cells (SILAC), treated live; soluble proteome analysed
# Outline: as §1
# T11 sequence (P30086 whole entry): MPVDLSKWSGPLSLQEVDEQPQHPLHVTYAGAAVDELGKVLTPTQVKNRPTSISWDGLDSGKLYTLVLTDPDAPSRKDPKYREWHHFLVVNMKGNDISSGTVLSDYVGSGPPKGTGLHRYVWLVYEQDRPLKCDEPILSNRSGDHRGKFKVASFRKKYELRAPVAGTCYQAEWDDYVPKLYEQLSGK
# T14 sequence (P50502 whole entry): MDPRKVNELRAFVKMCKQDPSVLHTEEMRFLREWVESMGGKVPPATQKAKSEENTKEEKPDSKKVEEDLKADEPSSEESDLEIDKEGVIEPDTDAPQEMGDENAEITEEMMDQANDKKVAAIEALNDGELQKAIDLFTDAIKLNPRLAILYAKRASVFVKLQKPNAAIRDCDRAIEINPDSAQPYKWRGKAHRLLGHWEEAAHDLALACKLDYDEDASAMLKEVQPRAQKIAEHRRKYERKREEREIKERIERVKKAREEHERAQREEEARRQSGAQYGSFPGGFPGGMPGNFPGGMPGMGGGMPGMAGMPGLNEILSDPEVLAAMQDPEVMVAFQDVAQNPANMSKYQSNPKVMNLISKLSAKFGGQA
# T7 sequence (Q14847 whole entry): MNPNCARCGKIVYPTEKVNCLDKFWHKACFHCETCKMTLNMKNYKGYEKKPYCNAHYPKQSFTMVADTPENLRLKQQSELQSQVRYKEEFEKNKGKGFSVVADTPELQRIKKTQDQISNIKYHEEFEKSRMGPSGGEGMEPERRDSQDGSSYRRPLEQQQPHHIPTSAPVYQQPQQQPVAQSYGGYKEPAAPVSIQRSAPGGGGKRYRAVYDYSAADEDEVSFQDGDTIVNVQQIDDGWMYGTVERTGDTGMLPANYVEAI
# T18 sequence (Q96A72 whole entry): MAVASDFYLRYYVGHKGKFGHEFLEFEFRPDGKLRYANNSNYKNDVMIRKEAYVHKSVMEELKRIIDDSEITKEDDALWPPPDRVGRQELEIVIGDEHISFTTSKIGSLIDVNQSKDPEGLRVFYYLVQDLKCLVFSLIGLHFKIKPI
# T10 sequence (Q9HCH5 whole entry): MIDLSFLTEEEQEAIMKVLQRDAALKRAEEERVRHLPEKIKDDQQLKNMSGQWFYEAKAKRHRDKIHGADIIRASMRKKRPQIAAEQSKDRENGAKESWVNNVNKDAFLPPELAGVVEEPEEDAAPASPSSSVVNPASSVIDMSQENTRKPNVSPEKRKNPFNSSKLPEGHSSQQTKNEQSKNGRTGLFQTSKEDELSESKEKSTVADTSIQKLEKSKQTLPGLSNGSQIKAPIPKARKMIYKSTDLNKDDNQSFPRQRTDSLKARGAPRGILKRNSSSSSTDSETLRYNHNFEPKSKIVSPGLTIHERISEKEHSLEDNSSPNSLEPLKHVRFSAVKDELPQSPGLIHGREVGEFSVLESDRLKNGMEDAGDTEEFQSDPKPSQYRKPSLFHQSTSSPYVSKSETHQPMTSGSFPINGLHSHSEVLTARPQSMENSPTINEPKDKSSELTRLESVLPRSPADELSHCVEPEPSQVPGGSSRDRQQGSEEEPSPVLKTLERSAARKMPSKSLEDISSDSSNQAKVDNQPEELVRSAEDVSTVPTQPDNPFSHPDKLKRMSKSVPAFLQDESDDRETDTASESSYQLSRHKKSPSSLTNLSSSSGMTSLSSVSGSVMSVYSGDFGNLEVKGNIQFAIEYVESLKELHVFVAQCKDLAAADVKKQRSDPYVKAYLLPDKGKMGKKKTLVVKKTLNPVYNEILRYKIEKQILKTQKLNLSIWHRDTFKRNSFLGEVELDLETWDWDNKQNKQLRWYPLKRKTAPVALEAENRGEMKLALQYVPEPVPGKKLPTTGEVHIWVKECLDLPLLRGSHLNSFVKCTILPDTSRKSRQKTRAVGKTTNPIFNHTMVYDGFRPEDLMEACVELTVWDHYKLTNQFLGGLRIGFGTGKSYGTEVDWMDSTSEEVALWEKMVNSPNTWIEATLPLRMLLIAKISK
# T1 sequence (O14777 whole entry): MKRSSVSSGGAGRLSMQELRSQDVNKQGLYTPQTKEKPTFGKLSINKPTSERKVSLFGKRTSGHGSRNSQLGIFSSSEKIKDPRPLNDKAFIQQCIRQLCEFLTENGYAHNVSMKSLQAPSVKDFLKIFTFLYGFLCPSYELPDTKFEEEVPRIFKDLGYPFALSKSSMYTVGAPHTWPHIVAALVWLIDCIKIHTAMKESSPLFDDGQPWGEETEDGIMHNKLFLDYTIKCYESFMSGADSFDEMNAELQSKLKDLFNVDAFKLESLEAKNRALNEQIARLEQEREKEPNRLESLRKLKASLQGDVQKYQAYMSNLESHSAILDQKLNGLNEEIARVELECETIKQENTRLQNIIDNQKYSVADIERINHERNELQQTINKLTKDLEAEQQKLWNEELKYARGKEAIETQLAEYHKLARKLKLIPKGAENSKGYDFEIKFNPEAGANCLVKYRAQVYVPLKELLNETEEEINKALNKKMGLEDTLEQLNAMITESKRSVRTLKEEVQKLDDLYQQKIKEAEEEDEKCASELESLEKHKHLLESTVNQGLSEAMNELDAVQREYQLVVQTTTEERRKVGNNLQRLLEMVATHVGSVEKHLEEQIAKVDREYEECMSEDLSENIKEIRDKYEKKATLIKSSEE
# T4 sequence (P23588 whole entry): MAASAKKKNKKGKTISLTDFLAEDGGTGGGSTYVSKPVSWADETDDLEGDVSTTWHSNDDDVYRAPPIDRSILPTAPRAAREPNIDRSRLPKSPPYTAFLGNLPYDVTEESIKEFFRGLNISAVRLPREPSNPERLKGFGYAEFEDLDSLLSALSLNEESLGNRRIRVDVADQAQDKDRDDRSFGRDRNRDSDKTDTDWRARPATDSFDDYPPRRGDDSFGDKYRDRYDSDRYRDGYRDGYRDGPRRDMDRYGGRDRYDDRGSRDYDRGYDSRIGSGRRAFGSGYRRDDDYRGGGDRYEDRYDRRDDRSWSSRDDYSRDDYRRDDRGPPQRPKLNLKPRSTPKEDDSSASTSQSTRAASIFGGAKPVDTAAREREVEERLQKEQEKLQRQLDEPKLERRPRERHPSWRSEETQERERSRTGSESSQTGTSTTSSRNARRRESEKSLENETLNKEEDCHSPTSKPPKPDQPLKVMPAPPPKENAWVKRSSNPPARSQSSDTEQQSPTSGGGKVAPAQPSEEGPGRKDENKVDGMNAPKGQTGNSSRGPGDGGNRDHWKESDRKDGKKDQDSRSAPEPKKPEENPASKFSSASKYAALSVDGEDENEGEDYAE
# T13 sequence (Q96BR5 whole entry): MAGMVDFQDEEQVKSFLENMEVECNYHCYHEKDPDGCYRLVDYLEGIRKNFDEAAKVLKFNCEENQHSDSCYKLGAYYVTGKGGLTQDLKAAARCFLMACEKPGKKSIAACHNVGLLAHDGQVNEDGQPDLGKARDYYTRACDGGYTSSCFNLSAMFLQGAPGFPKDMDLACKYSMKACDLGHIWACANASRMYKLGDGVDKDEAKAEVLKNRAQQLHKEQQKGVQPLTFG
# T2 sequence (Q6NZY4 whole entry): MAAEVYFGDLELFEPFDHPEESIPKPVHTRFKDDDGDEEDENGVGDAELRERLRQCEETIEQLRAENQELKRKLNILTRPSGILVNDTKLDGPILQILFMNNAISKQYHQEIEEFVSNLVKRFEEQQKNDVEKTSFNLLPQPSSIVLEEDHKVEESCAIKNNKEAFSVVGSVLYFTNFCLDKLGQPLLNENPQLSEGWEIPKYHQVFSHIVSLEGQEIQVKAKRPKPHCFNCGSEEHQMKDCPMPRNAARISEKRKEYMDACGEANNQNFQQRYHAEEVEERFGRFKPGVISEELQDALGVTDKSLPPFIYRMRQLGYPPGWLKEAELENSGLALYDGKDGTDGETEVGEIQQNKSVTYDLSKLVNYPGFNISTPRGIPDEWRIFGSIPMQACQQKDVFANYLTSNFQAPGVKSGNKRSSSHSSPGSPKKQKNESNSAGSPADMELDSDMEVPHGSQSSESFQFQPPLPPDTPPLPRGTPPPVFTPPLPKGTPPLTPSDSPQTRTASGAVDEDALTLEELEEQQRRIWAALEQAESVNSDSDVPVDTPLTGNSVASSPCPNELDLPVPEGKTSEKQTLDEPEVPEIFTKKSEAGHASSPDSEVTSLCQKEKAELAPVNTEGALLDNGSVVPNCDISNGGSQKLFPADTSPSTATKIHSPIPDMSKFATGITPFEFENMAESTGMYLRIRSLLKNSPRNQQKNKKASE
# T16 sequence (Q92804 whole entry): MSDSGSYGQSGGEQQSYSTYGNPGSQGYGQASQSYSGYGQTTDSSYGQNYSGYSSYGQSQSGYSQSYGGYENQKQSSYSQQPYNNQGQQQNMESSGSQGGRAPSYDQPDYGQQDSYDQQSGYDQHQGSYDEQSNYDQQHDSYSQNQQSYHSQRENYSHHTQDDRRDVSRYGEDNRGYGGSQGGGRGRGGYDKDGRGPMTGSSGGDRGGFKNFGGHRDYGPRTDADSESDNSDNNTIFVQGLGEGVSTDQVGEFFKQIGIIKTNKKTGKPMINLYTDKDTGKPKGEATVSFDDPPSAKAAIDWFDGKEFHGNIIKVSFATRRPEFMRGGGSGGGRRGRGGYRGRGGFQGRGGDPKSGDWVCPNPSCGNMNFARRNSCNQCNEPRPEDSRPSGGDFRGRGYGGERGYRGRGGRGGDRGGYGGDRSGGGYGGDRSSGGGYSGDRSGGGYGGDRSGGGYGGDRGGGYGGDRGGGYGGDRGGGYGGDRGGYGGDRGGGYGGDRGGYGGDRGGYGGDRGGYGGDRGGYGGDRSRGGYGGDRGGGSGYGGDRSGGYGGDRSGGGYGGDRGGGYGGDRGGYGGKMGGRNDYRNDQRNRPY
structure (smiles),measurement,setting,value
"O=C(c1ccc(S(=O)(=O)n2cncn2)cc1)N1CCC(c2ccccc2)CC1 [HHS-0701, (4-((1H-1,2,4-triazol-1-yl)sulfonyl)phenyl)(4-phenylpiperidin-1-yl)methanone]",liganded tyrosine site 310,[1],HHS0701.Y (tyrosine sites that showed >80% reductions (SR >5) in probe labeling in cells treated with compounds (liganded sites))
same,liganded tyrosine site 258,[2],HHS0701.Y (tyrosine sites that showed >80% reductions (SR >5) in probe labeling in cells treated with compounds (liganded sites))
same,liganded tyrosine site 194,[3],HHS0701.Y (tyrosine sites that showed >80% reductions (SR >5) in probe labeling in cells treated with compounds (liganded sites))
"O=C(NC1CC1)c1ccc(S(=O)(=O)n2cncn2)cc1 [HHS-0101, 4-((1H-1,2,4-triazol-1-yl)sulfonyl)-N-cyclopropylbenzamide]",liganded tyrosine site 258,[4],HHS0101.Y (tyrosine sites that showed >80% reductions (SR >5) in probe labeling in cells treated with compounds (liganded sites))
same,liganded tyrosine site 430,[5],HHS0101.Y|HHS0201.Y|HHS0401.Y (tyrosine sites that showed >80% reductions (SR >5) in probe labeling in cells treated with compounds (liganded sites))
same,liganded tyrosine site 183,[6],HHS0101.Y (tyrosine sites that showed >80% reductions (SR >5) in probe labeling in cells treated with compounds (liganded sites))
same,liganded tyrosine site 57,[7],HHS0101.Y (tyrosine sites that showed >80% reductions (SR >5) in probe labeling in cells treated with compounds (liganded sites))
same,liganded tyrosine site 894,[8],HHS0101.Y|HHS0401.Y (tyrosine sites that showed >80% reductions (SR >5) in probe labeling in cells treated with compounds (liganded sites))
same,liganded tyrosine site 237,[9],HHS0101.Y|HHS0201.Y|HHS0301.Y|HHS0401.Y (tyrosine sites that showed >80% reductions (SR >5) in probe labeling in cells treated with compounds (liganded sites))
same,liganded tyrosine site 289,[10],HHS0101.Y|HHS0201.Y|HHS0301.Y|HHS0401.Y|HHS0701.Y (tyrosine sites that showed >80% reductions (SR >5) in probe labeling in cells treated with compounds (liganded sites))
"O=C(NC1CCCCC1)c1ccc(S(=O)(=O)n2cncn2)cc1 [HHS-0301, 4-((1H-1,2,4-triazol-1-yl)sulfonyl)-N-cyclohexylbenzamide]",liganded tyrosine site 106,[11],HHS0301.Y (tyrosine sites that showed >80% reductions (SR >5) in probe labeling in cells treated with compounds (liganded sites))
same,liganded tyrosine site 218,[12],HHS0301.Y (tyrosine sites that showed >80% reductions (SR >5) in probe labeling in cells treated with compounds (liganded sites))
"O=C(NCc1ccccc1)c1ccc(S(=O)(=O)n2cncn2)cc1 [HHS-0401, 4-((1H-1,2,4-triazol-1-yl)sulfonyl)-N-benzylbenzamide]",liganded tyrosine site 72,[13],HHS0401.Y (tyrosine sites that showed >80% reductions (SR >5) in probe labeling in cells treated with compounds (liganded sites))
"O=C(NCC1CC1)c1ccc(S(=O)(=O)n2cncn2)cc1 [HHS-0201, 4-((1H-1,2,4-triazol-1-yl)sulfonyl)-N-(cyclopropylmethyl)benzamide]",liganded tyrosine site 213,[14],HHS0201.Y (tyrosine sites that showed >80% reductions (SR >5) in probe labeling in cells treated with compounds (liganded sites))
same,liganded tyrosine site 1012,[15],HHS0201.Y (tyrosine sites that showed >80% reductions (SR >5) in probe labeling in cells treated with compounds (liganded sites))
same,liganded tyrosine site 170,[16],HHS0201.Y|HHS0301.Y (tyrosine sites that showed >80% reductions (SR >5) in probe labeling in cells treated with compounds (liganded sites))
same,liganded tyrosine site 244,[17],HHS0201.Y|HHS0301.Y (tyrosine sites that showed >80% reductions (SR >5) in probe labeling in cells treated with compounds (liganded sites))
same,liganded tyrosine site 36,[18],HHS0201.Y (tyrosine sites that showed >80% reductions (SR >5) in probe labeling in cells treated with compounds (liganded sites))
